Test results from US9687467B2, “Diagnosis and treatment of taxane-resistant cancers” (Children's Medical Center Corporation, priority 2011, dated 2017).

Tests used:
MES-SA cells = test: MTT cell viability assay, paclitaxel response; type: cell-based, human; conditions: 100 nM paclitaxel for 72 h
Protocol: The paclitaxel-resistant cell lines MES-SA^DX5 and A549^TR were transfected with a scrambled non-targeting miRNA (control) and an miR-135a mimic (mimic), respectively. Cells were subsequently treated with 100 nM paclitaxel and cell viability was assessed using the MTT assay (FIGS. 2A, 2B). The percentage of apoptotic cells was assessed by Annexin V-staining and FACS analysis (FIGS. 2C, 2D). Values are presented as percent cell survival in paclitaxel-treated cells relative to untreated cells. *P<0.05, **P<0.001 as determined by Wilcoxon's rank sum test.
FIGS. 4A-4E are a series of micrographs and line graphs showing that miR-135a-mediated APC suppression contributes to paclitaxel resistance. MES-SA and A549 cells were mock-transfected (mock), transfected with a scrambled siRNA (siControl) or with siRNA directed against APC (siAPC). […] Transfected A549 (FIG. 4B) and MES-SA (FIG. 4C) cells were treated with paclitaxel and viability was assessed using the MTT assay. […] (FIG. 4E) Both A549-shCON and -shAPC cells were treated with paclitaxel and cell viability was measured using the MTT assay. […]
Cell growth inhibition was determined by a 3-(4,5-dimethylthiazol-2-yl)-2,5-diphenyltetrazolium (MTT) bromide assay. […] Absorbance was determined using a 96-well SpectraMax plate reader (Molecular Devices, Sunnyvale, Calif.) at 560 nm and 650 nm (background). […]

A549 xenografts = test: A549 xenograft mouse model, paclitaxel treatment; type: in vivo, nude mice
Protocol: (FIG. 5A) A suspension of A549 cells was injected subcutaneously into the flank of a nude mouse. When the average tumor volume was at least 120 mm^3, vehicle or paclitaxel (15 mg/kg) was administered intraperitoneally every other day. Treatment was continued until tumors reached approximately four times their initial volume. Paclitaxel-refractory, as well as vehicle-treated tumors, were digested with collagenase and cultured in vitro (adapted from Norman E et al. Nature Reviews Drug Discovery 2006; 5: 741-754). (FIG. 5B) Tumor growth was determined as the tumor volume on the day of treatment relative to the tumor volume at the start of treatment and presented as a ratio. Each line represents the growth of an individual tumor (T) in an individual mouse (indicated by a number). Groups of mice are separated into control, paclitaxel-responsive and paclitaxel non-responsive (continuous tumor growth in the presence of paclitaxel) groups. […] (FIG. 5C) Vehicle-treated tumors (hatched bars) or paclitaxel-refractory tumors (black bars) were harvested from mice and used to generate two cell lines per tumor. The indicated cell lines were cultured in vitro and cell viability was assessed 72 h after paclitaxel addition using the MTT assay. Bars represent average LC50±s.e.m. from triplicate experiments.
Nude mice were inoculated with A549 cells. At an average tumor volume of ˜120 mm^3, vehicle control and 10 mg/kg (FIG. 10A) or 12.5 mg/kg (FIG. 10B) paclitaxel was administered i.p. every day. Each curve represents the tumor volume on the day of treatment relative to day 0 per mouse.
To further establish the role of miR-135a in paclitaxel response, the A549 xenograft mouse model was adapted from the protocol previously described by Patel et al., 2010. Briefly, nude mice bearing subcutaneous A549 xenografts were injected intraperitoneally with either vehicle or 15 mg/kg paclitaxel until tumors that responded initially began to regrow (FIG. 5A). […] After 120 days of paclitaxel treatment, control and paclitaxel-refractory tumors were harvested. Within two passages in vitro, RNA was harvested for miRNA evaluation and determination of paclitaxel response.
Approximately 4×10^6 human A549 NSCLC cells were resuspended in 50% Matrigel (BD Biosciences, Bedford, Mass.) and injected subcutaneously into the hind flanks of 8-wk old male athymic (nu/nu) nude mice (Taconic Farms, Inc., Hudson, N.Y.). […] Tumor size was determined by digital caliper measurements (length and width in mm), and tumor volume (mm^3) was estimated using the formula (length×width^2)/2. Effects on tumor growth rate were assessed per mouse by determining the tumor volume on the day of treatment relative to the tumor volume on Day 0. […]

T28.2 xenografts = test: Retransplantation xenograft, paclitaxel-sensitive control clone; type: in vivo, nude mice
Protocol: FIGS. 6A-6C are a series of graphs showing data that validate the A549 in vivo paclitaxel resistance model. (FIG. 6A) Tumor cell lines established after an initial round of inoculation and treatment with either vehicle (T28.2) or 15 mg/kg paclitaxel (T20.2) were harvested during log-phase growth and reinjected subcutaneously into the flanks of nude mice. When the average tumor volume was ˜120 mm^3, vehicle (open circles or squares) or 15 mg/kg paclitaxel (closed circles or squares) was administered intraperitoneally every other day. Treatment was continued until tumors reached approximately four times their initial volume. Each curve represents the average tumor growth±s.e.m. for 10 mice per group. […] Each bar represents the average tumor growth±s.e.m. for 10 mice per group. NS: not significant, *P<0.05 as determined by Wilcoxon's rank sum test. (FIG. 6C) Tumors were harvested, cultured in vitro and cell viability was assessed using the MTT assay. Values are presented as percentage of cell survival in paclitaxel-treated cells relative to untreated cells. White bars represent LC50s from tumor cell lines established from T28.2 tumors treated with vehicle. Black bars represent LC50s from cell lines established from T20.2 tumors treated with paclitaxel. Shown are the mean±s.e.m. of two independent experiments, each performed in triplicate. *P<0.05 as determined by Wilcoxon's rank sum test. […]

CC(=O)O[C@H]1C(=O)[C@@]2(C)[C@H]([C@H](OC(=O)c3ccccc3)[C@]3(O)C[C@H](OC(=O)[C@H](O)[C@@H](NC(=O)c4ccccc4)c4ccccc4)C(C)=C1C3(C)C)[C@]1(OC(C)=O)CO[C@@H]1C[C@@H]2O [paclitaxel]
cell survival (MES-SA cells): 21.8%
generation of paclitaxel-refractory tumors (A549 xenografts; 10 mg/kg paclitaxel i.p.): did not generate any paclitaxel-refractory tumors
generation of paclitaxel-refractory tumors (A549 xenografts; 12.5 mg/kg paclitaxel i.p.): did not generate any paclitaxel-refractory tumors
mice with prolonged response (A549 xenografts; 15 mg/kg paclitaxel intraperitoneally): 7 out of 10
mice that became paclitaxel-refractory (A549 xenografts; 15 mg/kg paclitaxel intraperitoneally, continued treatment): 3 out of 10
tumor growth after paclitaxel treatment (T28.2 xenografts; 15 mg/kg paclitaxel i.p.): shrank substantially
reduction of relative tumor burden at the end of the experiment (T28.2 xenografts; 15 mg/kg paclitaxel i.p. vs vehicle, P=0.003): 4.5 fold
